From the NIST ThermoML archive (doi:10.1021/acs.jced.8b00433)

Assay: xn = mol fraction of the nth substance listed
Settings: Gas, Buoyancy - hydrostatic balance with magnetic suspension - one sinker

C [methane] + O=C=O
Settings	mass density [kg/m3]
313.09 K, 17999 kPa, x2 = 0.2017	188.702
313.1 K, 4001 kPa, x2 = 0.8988	75.134
313.1 K, 4996 kPa, x2 = 0.3997	58.587
313.1 K, 5996 kPa, x2 = 0.7985	114.567
313.1 K, 7003 kPa, x2 = 0.7985	142.512
313.1 K, 7006 kPa, x2 = 0.6015	110.298
313.11 K, 7997 kPa, x2 = 0.7985	174.464
313.11 K, 10000 kPa, x2 = 0.6015	177.419
313.11 K, 12001 kPa, x2 = 0.0998	102.596
313.11 K, 14997 kPa, x2 = 0.3997	217.543
313.12 K, 7992 kPa, x2 = 0.8988	206.745
313.12 K, 14996 kPa, x2 = 0.8988	624.636
313.13 K, 4001 kPa, x2 = 0.0998	30.822
313.13 K, 4002 kPa, x2 = 0.6015	56.419
313.13 K, 5003 kPa, x2 = 0.8988	100.174
313.13 K, 6004 kPa, x2 = 0.6015	90.955
313.13 K, 9996 kPa, x2 = 0.7985	256.481
313.13 K, 10003 kPa, x2 = 0.0998	83.788
313.13 K, 11005 kPa, x2 = 0.3997	149.559
313.14 K, 3998 kPa, x2 = 0.3997	45.694
313.14 K, 7995 kPa, x2 = 0.6015	130.852
313.14 K, 11000 kPa, x2 = 0.0998	93.126
313.14 K, 11001 kPa, x2 = 0.2017	110.189
313.14 K, 11001 kPa, x2 = 0.6015	202.91
313.14 K, 15004 kPa, x2 = 0.7985	485.573
313.15 K, 4004 kPa, x2 = 0.7985	68.752
313.15 K, 5996 kPa, x2 = 0.3997	72.099
313.15 K, 11997 kPa, x2 = 0.8988	506.067
313.16 K, 5003 kPa, x2 = 0.7985	90.396
313.16 K, 6996 kPa, x2 = 0.3997	86.285
313.16 K, 18004 kPa, x2 = 0.6015	375.856
313.17 K, 3002 kPa, x2 = 0.0998	22.748
313.17 K, 5002 kPa, x2 = 0.6015	73.052
313.17 K, 5997 kPa, x2 = 0.8988	128.664
313.17 K, 8998 kPa, x2 = 0.6015	153.28
313.17 K, 15002 kPa, x2 = 0.0998	130.663
313.17 K, 18004 kPa, x2 = 0.0998	157.443
313.17 K, 18005 kPa, x2 = 0.7985	560.943
313.18 K, 8998 kPa, x2 = 0.8988	265.242
313.18 K, 9004 kPa, x2 = 0.2017	87.631
313.18 K, 11998 kPa, x2 = 0.6015	229.134
313.18 K, 14996 kPa, x2 = 0.2017	155.927
313.19 K, 5002 kPa, x2 = 0.0998	39.114
313.19 K, 6000 kPa, x2 = 0.0998	47.652
313.19 K, 8998 kPa, x2 = 0.3997	116.64
313.19 K, 9995 kPa, x2 = 0.3997	132.712
313.19 K, 10993 kPa, x2 = 0.7985	305.994
313.19 K, 11992 kPa, x2 = 0.3997	166.169
313.2 K, 3998 kPa, x2 = 0.2017	35.711
313.2 K, 9001 kPa, x2 = 0.0998	74.487
313.2 K, 9003 kPa, x2 = 0.7985	212.239
313.2 K, 10990 kPa, x2 = 0.8988	432.06
313.21 K, 5000 kPa, x2 = 0.2017	45.475
313.21 K, 6999 kPa, x2 = 0.0998	56.348
313.21 K, 8000 kPa, x2 = 0.0998	65.323
313.21 K, 9999 kPa, x2 = 0.8988	344.181
313.21 K, 14995 kPa, x2 = 0.6015	308.146
313.21 K, 17995 kPa, x2 = 0.8988	683.03
313.21 K, 17997 kPa, x2 = 0.3997	264.841
313.22 K, 5999 kPa, x2 = 0.2017	55.518
313.22 K, 6997 kPa, x2 = 0.8988	163.201
313.22 K, 8000 kPa, x2 = 0.2017	76.608
313.22 K, 11998 kPa, x2 = 0.2017	121.576
313.22 K, 12000 kPa, x2 = 0.7985	357.778
313.23 K, 7005 kPa, x2 = 0.2017	65.96
313.24 K, 10003 kPa, x2 = 0.2017	98.786
313.27 K, 8000 kPa, x2 = 0.3997	101.088
333.06 K, 10002 kPa, x2 = 0.2017	88.824
333.07 K, 4003 kPa, x2 = 0.7985	62.105
333.07 K, 11999 kPa, x2 = 0.3997	144.496
333.07 K, 17998 kPa, x2 = 0.2017	166.841
333.08 K, 4997 kPa, x2 = 0.6015	65.944
333.08 K, 5002 kPa, x2 = 0.3997	53.475
333.08 K, 8999 kPa, x2 = 0.2017	79.049
333.08 K, 9003 kPa, x2 = 0.3997	103.555
333.08 K, 15000 kPa, x2 = 0.8988	456.324
333.1 K, 5000 kPa, x2 = 0.0998	36.091
333.11 K, 6004 kPa, x2 = 0.6015	81.338
333.11 K, 11001 kPa, x2 = 0.2017	98.605
333.12 K, 4001 kPa, x2 = 0.6015	51.39
333.12 K, 4003 kPa, x2 = 0.2017	33.068
333.12 K, 6995 kPa, x2 = 0.3997	77.606
333.12 K, 9995 kPa, x2 = 0.3997	116.802
333.12 K, 14999 kPa, x2 = 0.0998	116.773
